Experimental data from article PMC10894281, “Kinetic characterization of human mRNA guanine-N7 methyltransferase” (Scientific Reports, 2024).
One block for each molecule: values may come before it.

Key:
Format in all cases: biochemical
[1] = molecular target: T1, RNA cap guanine-N7 methyltransferase (hRNMT) (Homo sapiens, UniProt O43148); experiment: radiometric scintillation proximity methyltransferase assay (3H-SAM, biotinylated RNA); product inhibition; design: gene RNMT; RNMT (1–476), full length
T1 sequence (O43148 whole entry, the tested form may be a part): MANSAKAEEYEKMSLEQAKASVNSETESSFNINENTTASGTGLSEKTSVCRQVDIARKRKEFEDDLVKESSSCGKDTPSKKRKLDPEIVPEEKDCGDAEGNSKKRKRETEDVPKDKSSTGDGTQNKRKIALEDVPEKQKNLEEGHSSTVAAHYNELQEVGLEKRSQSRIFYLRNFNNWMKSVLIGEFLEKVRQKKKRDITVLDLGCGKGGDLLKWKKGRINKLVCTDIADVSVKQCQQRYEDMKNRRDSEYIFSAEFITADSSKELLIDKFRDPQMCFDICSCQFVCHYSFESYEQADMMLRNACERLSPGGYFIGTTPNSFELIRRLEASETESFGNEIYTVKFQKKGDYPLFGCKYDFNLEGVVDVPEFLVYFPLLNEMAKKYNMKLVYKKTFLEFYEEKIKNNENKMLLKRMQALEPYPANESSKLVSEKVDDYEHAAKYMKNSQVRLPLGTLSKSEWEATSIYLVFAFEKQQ

[2] = molecular target: T1, RNA cap guanine-N7 methyltransferase (hRNMT); experiment: steady-state kinetics, apparent Km by radiometric scintillation proximity assay; design: gene RNMT; RNMT (1–476), full length; also catalytic domain RNMT (123–476); conditions: read-out: Km^app
[3] = molecular target: T1, RNA cap guanine-N7 methyltransferase (hRNMT); experiment: radiometric scintillation proximity methyltransferase assay (3H-SAM, biotinylated RNA); design: gene RNMT; RNMT (1–476), full length

Compound: Nc1ncnc2c1ncn2[C@@H]1O[C@H](CSCC[C@H](N)C(=O)O)[C@@H](O)[C@H]1O [SAH]
IC50 [1]: 389 ± 110 nM

Km [2]: 0.19 ± 0.038 µM
Compound: C[S+](CC[C@H](N)C(=O)[O-])C[C@H]1O[C@@H](n2cnc3c(N)ncnc32)[C@H](O)[C@@H]1O (stereo partly shown) [SAM]

Compound: Nc1ncnc2c1ncn2[C@@H]1O[C@H](C[C@@H](N)CC[C@H](N)C(=O)O)[C@@H](O)[C@H]1O [Sinefungin]
IC50 [3]: 3 ± 0.6 nM

IC50 ([3]; read-out: IC50): 5 ± 0.4 nM
Compound: Cc1ccc(C(=O)Nc2ccc(S(=O)(=O)O)c3cc(S(=O)(=O)O)cc(S(=O)(=O)O)c23)cc1NC(=O)c1cccc(NC(=O)Nc2cccc(C(=O)Nc3cc(C(=O)Nc4ccc(S(=O)(=O)O)c5cc(S(=O)(=O)O)cc(S(=O)(=O)O)c45)ccc3C)c2)c1 [Suramin]
